# Assay results taken from patent US20100204265A1 (priority 2009, published 2010).
# Test system: ET (Huh-lucubineo-ET) cell line harboring I389luc-ubi-neo/NS3-3′/ET HCV replicon
# Experiment: Replicon assay (HCV replicon, luciferase readout)
# Assay type: cell-based
# Conditions: Hepatitis C virus
# Outline: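 Compounds at 10-point 2-fold dilutions (overall 0.1 nM to […], 0.5% DMSO) were applied to ET cells carrying a luciferase-neo HCV replicon, seeded a day earlier. After 48-72 hours, luciferase-based % inhibition was fitted with a Hill equation for EC50, and parallel WST-1 readings gave TC50.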
row,SMILES,EC50 [µM]
1,"O=C(c1nc2c(C(F)(F)F)cc(-c3ccccc3)cn2c1Cl)N1CC=C(c2ncccc2F)CC1 [Compound 124, (3-Chloro-6-phenyl-8-trifluoromethyl-imidazo[1,2-a]pyridin-2-yl)-(3-fluoro-3′,6′-dihydro-2′H-[2,4′]bipyridinyl-1′-yl)-methanone]",2.48
2,"O=C1c2ccccc2C(=O)N1Cc1cn2cc(-c3ccoc3)cc(C(F)(F)F)c2n1 [Compound 234, 2-(6-Furan-3-yl-8-trifluoromethyl-imidazo[1,2-a]pyridin-2-ylmethyl)-isoindole-1,3-dione]",> 50
3,"CN(C1CN(C(=O)c2nc3c(C(F)(F)F)cc(-c4ccoc4)cn3c2Cl)C1)S(C)(=O)=O [Compound 143, N-[1-(3-Chloro-6-furan-3-yl-8-trifluoromethyl-imidazo[1,2-a]pyridine-2-carbonyl)-azetidin-3-yl]-N-methyl-methanesulfonamide]",0.901
4,"O=C(c1nc2c(C(F)(F)F)cc(C3=CCCC3)cn2c1Cl)N1CC=C(c2nccs2)C1 [Compound 150, (3-Chloro-6-cyclopent-1-enyl-8-trifluoromethyl-imidazo[1,2-a]pyridin-2-yl)-(3-thiazol-2-yl-2,5-dihydro-pyrrol-1-yl)-methanone]",0.00686
5,"O=C(c1nc2c(C(F)(F)F)cc(-c3cn[nH]c3)cn2c1Cl)N1CC=C(c2ccsc2)C1 [Compound 132, [3-Chloro-6-(1H-pyrazol-4-yl)-8-trifluoromethyl-imidazo[1,2-a]pyridin-2-yl]-(3-thiophen-3-yl-2,5-dihydro-pyrrol-1-yl)-methanone]",0.107
6,"COC(=O)C(CCCCNC(=O)OC(C)(C)C)NC(=O)c1cn2cc(-c3ccoc3)cc(C(F)(F)F)c2n1 (stereo not drawn) [Compound 257, 6-tert-Butoxycarbonylamino-2-[(6-furan-3-yl-8-trifluoromethyl-imidazo[1,2-a]pyridine-2-carbonyl)-amino]-hexanoic acid methyl ester]",> 50
7,"O=C(c1nc2c(C(F)(F)F)cc(-c3ccoc3)cn2c1Cl)N1CCC(n2ccnc2)CC1 [Compound 197, (3-Chloro-6-furan-3-yl-8-trifluoromethyl-imidazo[1,2-a]pyridin-2-yl)-(4-imidazol-1-yl-piperidin-1-yl)-methanone]",3.5
8,"CC(C)C(NC(=O)c1cn2cc(-c3ccoc3)cc(C(F)(F)F)c2n1)C(=O)O (stereo not drawn) [Compound 272, 2-[(6-Furan-3-yl-8-trifluoromethyl-imidazo[1,2-a]pyridine-2-carbonyl)-amino]-3-methyl-butyric acid]",> 50
9,"NC(=O)CNC(=O)Cc1cn2cc(-c3ccoc3)cc(C(F)(F)F)c2n1 [Compound 300, N-Carbamoylmethyl-2-(6-furan-3-yl-8-trifluoromethyl-imidazo[1,2-a]pyridin-2-yl)-acetamide]",> 50
10,"O=C(NC(Cc1ccccc1)C(=O)O)c1cn2cc(-c3ccoc3)cc(C(F)(F)F)c2n1 (stereo not drawn) [Compound 286, 2-[(6-Furan-3-yl-8-trifluoromethyl-imidazo[1,2-a]pyridine-2-carbonyl)-amino]-3-phenyl-propionic acid]",> 50
11,"O=C(c1nc2c(C(F)(F)F)cc(-c3cn[nH]c3)cn2c1Cl)N1CC=C(c2cn[nH]c2)C1 [Compound 135, [3-Chloro-6-(1H-pyrazol-4-yl)-8-trifluoromethyl-imidazo[1,2-a]pyridin-2-yl]-[3-(1H-pyrazol-4-yl)-2,5-dihydro-pyrrol-1-yl]-methanone]",0.596
12,"O=C(c1nc2c(C(F)(F)F)cc(-c3ccoc3)cn2c1Cl)N1CC=C(c2cncc(F)c2)CC1 [Compound 203, (3-Chloro-6-furan-3-yl-8-trifluoromethyl-imidazo[1,2-a]pyridin-2-yl)-(5-fluoro-3′,6′-dihydro-2′H-[3,4′]bipyridinyl-1′-yl)-methanone]",0.975
13,"FC(F)(F)c1cc(-c2ccoc2)cn2cc(Cc3nc(-c4ccccc4)no3)nc12 [Compound 229, 6-Furan-3-yl-2-(3-phenyl-[1,2,4,]oxadiazol-5-ylmethyl)-8-trifluoromethyl-imidazo[1,2-a]pyridine]",> 50
14,"O=C(NC(C(=O)O)c1ccccc1)c1cn2cc(-c3ccoc3)cc(C(F)(F)F)c2n1 (stereo not drawn) [Compound 271, [(6-Furan-3-yl-8-trifluoromethyl-imidazo[1,2-a]pyridine-2-carbonyl)-amino]-phenyl-acetic acid]",> 50
15,"COC(=O)[C@H](CCCCNC(=O)OC(C)(C)C)NC(=O)Cc1cn2cc(-c3ccoc3)cc(C(F)(F)F)c2n1 (stereo in doubt) [Compound 153, 6-tert-Butoxycarbonylamino-2-[2-(6-furan-3-yl-8-trifluoromethyl-imidazo[1,2-a]pyridin-2-yl)-acetylamino]-hexanoic acid methyl ester]",13.9
16,"CS(=O)(=O)NC1CN(C(=O)Cc2cn3cc(-c4ccoc4)cc(C(F)(F)F)c3n2)C1 [Compound 190, N-{1-[2-(6-Furan-3-yl-8-trifluoromethyl-imidazo[1,2-a]pyridin-2-yl)-acetyl]-azetidin-3-yl}-methanesulfonamide]",> 50
17,"O=C(c1nc2c(C(F)(F)F)cc(C3=CCNC3)cn2c1Cl)N1CC=C(c2ncccc2F)CC1 [Compound 121, [3-Chloro-6-(2,5-dihydro-1H-pyrrol-3-yl)-8-trifluoromethyl-imidazo[1,2-a]pyridin-2-yl]-(3-fluoro-3′,6′-dihydro-2′H-[2,4′]bipyridinyl-1′-yl)-methanone]",2.54

row,SMILES,EC50 [µM]
1,"O=C(c1nc2c(C(F)(F)F)cc(-c3ccoc3)cn2c1Cl)N1CCC(N2CCCCC2=O)CC1 [Compound 114, 1′-(3-Chloro-6-furan-3-yl-8-trifluoromethyl-imidazo[1,2-a]pyridine-2-carbonyl)-[1,4′]bipiperidinyl-2-one]",1.33
2,"NC(=O)[C@H]1CCCN1C(=O)Cc1cn2cc(-c3ccoc3)cc(C(F)(F)F)c2n1 [Compound 313, 1-[2-(6-Furan-3-yl-8-trifluoromethyl-imidazo[1,2-a]pyridin-2-yl)-acetyl]-pyrrolidine-2-carboxylic acid amide]",> 50
3,"CC(NC(=O)c1cn2cc(-c3ccoc3)cc(C(F)(F)F)c2n1)C(N)=O (stereo not drawn) [Compound 277, 6-Furan-3-yl-8-trifluoromethyl-imidazo[1,2-a]pyridine-2-carboxylic acid (1-carbamoyl-ethyl)-amide]",> 50
4,"O=C(c1nc2c(C(F)(F)F)cc(-c3ccoc3)cn2c1Cl)N1CCC(S(=O)(=O)c2ccccc2)CC1 [Compound 268, (4-Benzenesulfonyl-piperidin-1-yl)-(3-chloro-6-furan-3-yl-8-trifluoromethyl-imidazo[1,2-a]pyridin-2-yl)-methanone]",> 50
5,"CS(=O)(=O)N1CCN(C(=O)c2nc3c(C(F)(F)F)cc(-c4ccoc4)cn3c2Cl)CC1 [Compound 108, (3-Chloro-6-furan-3-yl-8-trifluoromethyl-imidazo[1,2-a]pyridin-2-yl)-(4-methanesulfonyl-piperazin-1-yl)-methanone]",24.1
6,"O=C(c1nc2c(C(F)(F)F)cc(-c3cn[nH]c3)cn2c1Cl)N1CC=C(c2cncs2)C1 [Compound 105, [3-Chloro-6-(1H-pyrazol-4-yl)-8-trifluoromethyl-imidazo [1,2-a]pyridin-2-yl]-(3-thiazol-5-yl-2,5-dihydro-pyrrol-1-yl)-methanone]",0.13
7,"CC(=O)NC(Cc1ccccc1)C(=O)NCc1cn2cc(-c3ccoc3)cc(C(F)(F)F)c2n1 (stereo not drawn) [Compound 260, 2-Acetylamino-N-(6-furan-3-yl-8-trifluoromethyl-imidazo[1,2-a]pyridin-2-ylmethyl)-3-phenyl-propionamide]",> 50
8,"NCCc1cn2cc(-c3ccoc3)cc(C(F)(F)F)c2n1 [Compound 258, 2-(6-Furan-3-yl-8-trifluoromethyl-imidazo[1,2-a]pyridin-2-yl)-ethylamine]",> 50
9,"CC(=O)NC(C(=O)NCc1cn2cc(-c3ccoc3)cc(C(F)(F)F)c2n1)C(C)O (stereo not drawn) [Compound 289, 2-Acetylamino-N-(6-furan-3-yl-8-trifluoromethyl-imidazo[1,2-a]pyridin-2-ylmethyl)-3-hydroxy-butyramide]",> 50
10,"CN(C)C(=O)[C@H]1CCCN1C(=O)Cc1cn2cc(-c3ccoc3)cc(C(F)(F)F)c2n1 [Compound 314, 1-[2-(6-Furan-3-yl-8-trifluoromethyl-imidazo[1,2-a]pyridin-2-yl)-acetyl]-pyrrolidine-2-carboxylic acid dimethylamide]",> 50
11,"CC(C)C(NC(=O)c1cn2cc(-c3ccoc3)cc(C(F)(F)F)c2n1)C(N)=O (stereo not drawn) [Compound 278, 6-Furan-3-yl-8-trifluoromethyl-imidazo[1,2-a]pyridine-2-carboxylic acid (1-carbamoyl-2-methyl-propyl)-amide]",> 50
12,"CC(O)[C@H](NC(=O)Cc1cn2cc(-c3ccoc3)cc(C(F)(F)F)c2n1)C(N)=O (stereo partly drawn) [Compound 299, 2-[2-(6-Furan-3-yl-8-trifluoromethyl-imidazo[1,2-a]pyridin-2-yl)-acetylamino]-3-hydroxy-butyramide]",> 50
13,"O=C(Cc1cn2cc(-c3ccoc3)cc(C(F)(F)F)c2n1)NCc1ccccc1 [Compound 185, N-Benzyl-2-(6-furan-3-yl-8-trifluoromethyl-imidazo[1,2-a]pyridin-2-yl)-acetamide]",4.8
14,"CC(=O)NC(C)C(=O)NCc1cn2cc(-c3ccoc3)cc(C(F)(F)F)c2n1 (stereo not drawn) [Compound 244, 2-Acetylamino-N-(6-furan-3-yl-8-trifluoromethyl-imidazo[1,2-a]pyridin-2-ylmethyl)-propionamide]",> 50
15,"CC(NC(=O)Cc1cn2cc(-c3ccoc3)cc(C(F)(F)F)c2n1)C(N)=O (stereo not drawn) [Compound 296, 2-[2-(6-Furan-3-yl-8-trifluoromethyl-imidazo[1,2-a]pyridin-2-yl)-acetylamino]-propionamide]",> 50
16,"CNC(=O)CNC(=O)Cc1cn2cc(-c3ccoc3)cc(C(F)(F)F)c2n1 [Compound 301, 2-(6-Furan-3-yl-8-trifluoromethyl-imidazo[1,2-a]pyridin-2-yl)-N-methylcarbamoylmethyl-acetamide]",> 50
